Results: article PMC9520775, “Everolimus pharmacokinetics and exposure-response relationship in Japanese patients with advanced breast cancer” (Frontiers in Pharmacology, 2022)

System: patients with advanced or metastatic breast cancer
Test: Adverse events (CTCAE Ver. 4.0), dose-limiting toxicities and dose reductions under everolimus
Assay type: in vivo, human
From the text: This was a prospective, observational PK study. Patients with advanced or metastatic breast cancer who received everolimus between November 2015 and November 2018 at Kobe City Medical Center General Hospital were enrolled in this study. The main inclusion criteria included the following: age ≥20 years; Eastern Cooperative Oncology Group (ECOG) performance status (PS): 0 or 1; and adequate bone marrow, liver, and renal function. The main exclusion criteria were interstitial pneumonia or pulmonary fibrosis, HBsAg positive, and psychiatric or psychological symptoms that made it difficult to participate in the study. Every participant provided written informed consent. This study was conducted in accordance with the Declaration of Helsinki and approved by the Institutional Review Board, under Approval Number zn151103.
Based on the physician’s decision, the patients were prescribed a starting dose of either 5 or 10 mg everolimus once daily. The everolimus dose was reduced when a patient experienced adverse events higher than grade 2. The first reduced dose was 5 mg once daily, followed by the second reduced dose of 2.5 mg once daily or 5 mg every alternate day. In addition, everolimus doses could be increased if adverse events improved to grade 1 or less, or deemed inefficacious. The adverse events were evaluated weekly for the first month and then every 1–4 weeks, according to the Common Terminology Criteria for Adverse Events Ver. 4.0.
Statistical differences in everolimus trough concentrations, doses and body weights between patient cohorts were assessed using the Mann–Whitney test. Progression-free survival (PFS) was assessed using the Kaplan-Meier method and the log-rank test. All statistical analyses were performed using GraphPad Prism version 7.03 (San Diego, CA). p < 0.05 was considered statistically significant.

[1] = Initial dose: 5 mg/day (n = 6), Grade 3
[2] = Initial dose: 5 mg/day (n = 6), Grade 4
[3] = Initial dose: 5 mg/day (n = 6), Grade All
[4] = Initial dose: 10 mg/day (n = 12), Grade 1
[5] = Initial dose: 10 mg/day (n = 12), Grade 2
[6] = Initial dose: 10 mg/day (n = 12), Grade 3
[7] = Initial dose: 10 mg/day (n = 12), Grade 4
[8] = Initial dose: 10 mg/day (n = 12), Grade All

For `CO[C@H]1C[C@@H]2CC[C@@H](C)[C@@](O)(O2)C(=O)C(=O)N2CCCC[C@H]2C(=O)O[C@H]([C@H](C)C[C@@H]2CC[C@@H](OCCO)[C@H](OC)C2)CC(=O)[C@H](C)/C=C(\C)[C@@H](O)[C@@H](OC)C(=O)[C@H](C)C[C@H](C)/C=C/C=C/C=C/1C` [everolimus], which “Adverse event, n: Diarrhea” value [1] is on record?
The value was 0.

And the “Adverse event, n: Dysgeusia” value [1]?
Its value is 0.

What about the “Adverse event, n: Epistaxis” value [1] of the same compound?
The value was 0.

What about the “Adverse event, n: High cholesterol” value [1] of the same compound?
Its value is 0.

And the “Adverse event, n: Hyperglycemia” value [1]?
Its value is 0.

What about the “Adverse event, n: Hypertriglyceridemia” value [1] of the same compound?
Its value is 0.

And the “Adverse event, n: Hypokalemia” value [1]?
Its value is 1.

And the “Adverse event, n: Interstitial lung disease” value [1]?
Its value is 0.

And the “Adverse event, n: Malaise” value [1]?
Its value is 0.

What about the “Adverse event, n: Mucositis oral” value [1] of the same compound?
Its value is 0.

What about the “Adverse event, n: Neutrophil count decreased” value [1] of the same compound?
The value was 0.

And the “Adverse event, n: Platelet decrease” value [1]?
Its value is 0.

What about the “Adverse event, n: Rash” value [1] of the same compound?
Its value is 0.

And the “Adverse event, n: Diarrhea” value [2]?
Its value is 0.

What about the “Adverse event, n: Dysgeusia” value [2] of the same compound?
The value was 0.

What about the “Adverse event, n: Epistaxis” value [2] of the same compound?
The value was 0.

And the “Adverse event, n: High cholesterol” value [2]?
The value was 0.

What about the “Adverse event, n: Hyperglycemia” value [2] of the same compound?
The value was 0.

What about the “Adverse event, n: Hypertriglyceridemia” value [2] of the same compound?
Its value is 0.

What about the “Adverse event, n: Hypokalemia” value [2] of the same compound?
Its value is 0.

And the “Adverse event, n: Interstitial lung disease” value [2]?
The value was 0.

And the “Adverse event, n: Malaise” value [2]?
The value was 0.

What about the “Adverse event, n: Mucositis oral” value [2] of the same compound?
Its value is 0.

What about the “Adverse event, n: Neutrophil count decreased” value [2] of the same compound?
Its value is 0.

What about the “Adverse event, n: Platelet decrease” value [2] of the same compound?
The value was 0.

What about the “Adverse event, n: Rash” value [2] of the same compound?
Its value is 0.

And the “Adverse event, n: Diarrhea” value [3]?
The value was 1.

And the “Adverse event, n: Dysgeusia” value [3]?
The value was 2.

And the “Adverse event, n: Epistaxis” value [3]?
Its value is 2.

And the “Adverse event, n: High cholesterol” value [3]?
Its value is 4.

What about the “Adverse event, n: Hyperglycemia” value [3] of the same compound?
Its value is 2.

What about the “Adverse event, n: Hypertriglyceridemia” value [3] of the same compound?
Its value is 3.

What about the “Adverse event, n: Hypokalemia” value [3] of the same compound?
The value was 3.

What about the “Adverse event, n: Interstitial lung disease” value [3] of the same compound?
The value was 1.

What about the “Adverse event, n: Malaise” value [3] of the same compound?
The value was 2.

And the “Adverse event, n: Mucositis oral” value [3]?
Its value is 6.

What about the “Adverse event, n: Neutrophil count decreased” value [3] of the same compound?
The value was 0.

And the “Adverse event, n: Platelet decrease” value [3]?
Its value is 2.

And the “Adverse event, n: Rash” value [3]?
Its value is 4.

And the “Adverse event, n: Diarrhea” value [4]?
Its value is 1.

What about the “Adverse event, n: Dysgeusia” value [4] of the same compound?
The value was 3.

What about the “Adverse event, n: Epistaxis” value [4] of the same compound?
The value was 4.

And the “Adverse event, n: High cholesterol” value [4]?
Its value is 5.

What about the “Adverse event, n: Hyperglycemia” value [4] of the same compound?
The value was 2.

And the “Adverse event, n: Hypertriglyceridemia” value [4]?
The value was 6.

What about the “Adverse event, n: Hypokalemia” value [4] of the same compound?
The value was 4.

And the “Adverse event, n: Interstitial lung disease” value [4]?
Its value is 3.

And the “Adverse event, n: Malaise” value [4]?
The value was 5.

And the “Adverse event, n: Mucositis oral” value [4]?
The value was 5.

And the “Adverse event, n: Neutrophil count decreased” value [4]?
The value was 2.

And the “Adverse event, n: Platelet decrease” value [4]?
The value was 7.

And the “Adverse event, n: Rash” value [4]?
The value was 8.

And the “Adverse event, n: Diarrhea” value [5]?
Its value is 3.

And the “Adverse event, n: Dysgeusia” value [5]?
Its value is 0.

And the “Adverse event, n: Epistaxis” value [5]?
Its value is 0.

And the “Adverse event, n: High cholesterol” value [5]?
Its value is 2.

What about the “Adverse event, n: Hyperglycemia” value [5] of the same compound?
Its value is 1.

And the “Adverse event, n: Hypertriglyceridemia” value [5]?
The value was 3.

And the “Adverse event, n: Hypokalemia” value [5]?
The value was 1.

What about the “Adverse event, n: Interstitial lung disease” value [5] of the same compound?
Its value is 1.

What about the “Adverse event, n: Malaise” value [5] of the same compound?
Its value is 0.

And the “Adverse event, n: Mucositis oral” value [5]?
The value was 6.

What about the “Adverse event, n: Neutrophil count decreased” value [5] of the same compound?
The value was 3.

And the “Adverse event, n: Platelet decrease” value [5]?
The value was 0.

What about the “Adverse event, n: Rash” value [5] of the same compound?
Its value is 2.

What about the “Adverse event, n: Diarrhea” value [6] of the same compound?
Its value is 0.

What about the “Adverse event, n: Dysgeusia” value [6] of the same compound?
The value was 0.

And the “Adverse event, n: Epistaxis” value [6]?
Its value is 0.

What about the “Adverse event, n: High cholesterol” value [6] of the same compound?
Its value is 0.

And the “Adverse event, n: Hyperglycemia” value [6]?
The value was 0.

And the “Adverse event, n: Hypertriglyceridemia” value [6]?
The value was 0.

And the “Adverse event, n: Hypokalemia” value [6]?
Its value is 0.

What about the “Adverse event, n: Interstitial lung disease” value [6] of the same compound?
The value was 0.

And the “Adverse event, n: Malaise” value [6]?
Its value is 0.

What about the “Adverse event, n: Mucositis oral” value [6] of the same compound?
The value was 0.

What about the “Adverse event, n: Neutrophil count decreased” value [6] of the same compound?
Its value is 1.

What about the “Adverse event, n: Platelet decrease” value [6] of the same compound?
Its value is 0.

And the “Adverse event, n: Rash” value [6]?
The value was 0.

And the “Adverse event, n: Diarrhea” value [7]?
Its value is 0.

What about the “Adverse event, n: Dysgeusia” value [7] of the same compound?
Its value is 0.

And the “Adverse event, n: Epistaxis” value [7]?
Its value is 0.

What about the “Adverse event, n: High cholesterol” value [7] of the same compound?
Its value is 0.

And the “Adverse event, n: Hyperglycemia” value [7]?
Its value is 0.

What about the “Adverse event, n: Hypertriglyceridemia” value [7] of the same compound?
Its value is 0.

What about the “Adverse event, n: Hypokalemia” value [7] of the same compound?
The value was 1.

And the “Adverse event, n: Interstitial lung disease” value [7]?
The value was 0.

And the “Adverse event, n: Malaise” value [7]?
Its value is 0.

And the “Adverse event, n: Mucositis oral” value [7]?
The value was 0.

And the “Adverse event, n: Neutrophil count decreased” value [7]?
The value was 0.

What about the “Adverse event, n: Platelet decrease” value [7] of the same compound?
Its value is 0.

And the “Adverse event, n: Rash” value [7]?
Its value is 0.

And the “Adverse event, n: Diarrhea” value [8]?
Its value is 4.

What about the “Adverse event, n: Dysgeusia” value [8] of the same compound?
The value was 3.

What about the “Adverse event, n: Epistaxis” value [8] of the same compound?
The value was 4.

What about the “Adverse event, n: High cholesterol” value [8] of the same compound?
The value was 7.

And the “Adverse event, n: Hyperglycemia” value [8]?
The value was 3.

And the “Adverse event, n: Hypertriglyceridemia” value [8]?
The value was 9.

What about the “Adverse event, n: Hypokalemia” value [8] of the same compound?
Its value is 6.

And the “Adverse event, n: Interstitial lung disease” value [8]?
Its value is 4.

And the “Adverse event, n: Malaise” value [8]?
Its value is 5.

And the “Adverse event, n: Mucositis oral” value [8]?
The value was 11.

And the “Adverse event, n: Neutrophil count decreased” value [8]?
The value was 6.

What about the “Adverse event, n: Platelet decrease” value [8] of the same compound?
The value was 7.

And the “Adverse event, n: Rash” value [8]?
Its value is 10.

And the “stomatitis, incidence, all grade” value (all patients, n = 18)?
The value was 94%.

And the “proportion of all patients who required a second dose reduction” value (from the starting dose of 10 mg (7/18))?
Its value is 39%.

And the “number of patients with dose-limiting toxicities (DLTs)” value (of 18 patients, during the 10 months of the study period)?
The value was 13.

And the “proportion of patients who required dose reduction owing to adverse drug reactions” value (starting dose of 5 mg (5/6))?
The value was 83%.

And the “DLT while being treated with clarithromycin” value (three patients, clarithromycin 200 mg twice daily for 7 days (CYP3A4 inhibitor) during everolimus treatment)?
The value was “no DLT”.
